From the NIST ThermoML archive (doi:10.1016/j.jct.2017.05.022)

Columns and labels:
[1] = Solid-liquid equilibrium temperature; conditions: Crystal, DTA
[2] = for specific volume / mass density: 101.33 kPa; for specific volume: X-ray diffraction; for mass density: Liquid, Vibrating tube method
[3] = Molar enthalpy of transition or fusion; conditions: Crystal; DSC

O=C(OCCN1CCOCC1)c1cccnc1Nc1cccc(C(F)(F)F)c1
Conditions | Solid-liquid equilibrium temperature [K] | mass density [kg/m3]
[1], 100 kPa | 348.1 | –
[1], 32000 kPa | 358.5 | –
[1], 58000 kPa | 366.9 | –
[1], 79000 kPa | 374.5 | –
[1], 115000 kPa | 382.7 | –
[1], 140000 kPa | 390.7 | –
[1], 155000 kPa | 396 | –
[1], 201000 kPa | 403.7 | –
[1], 244000 kPa | 421.5 | –
[2], 323.15 K | – | 1262.9
[2], 325.65 K | – | 1260.6
[2], 328.15 K | – | 1258.4
[2], 330.65 K | – | 1256.2
[2], 333.15 K | – | 1254
[2], 335.15 K | – | 1252.2
[2], 337.65 K | – | 1249.9
[2], 340.15 K | – | 1247.7
[2], 342.65 K | – | 1245.4
[2], 345.15 K | – | 1243.2
[2], 347.65 K | – | 1240.9
[2], 350.15 K | – | 1238.7
[2], 352.65 K | – | 1236.4
[2], 355.16 K | – | 1234.2
[2], 357.65 K | – | 1231.9
[2], 360.15 K | – | 1229.7
[2], 362.65 K | – | 1227.4

[2]
Conditions | Glass transition temperature [°C] | Normal melting temperature [°C] | specific volume [m3/kg]
100 K, Crystal | – | – | 0.0006857
125 K, Crystal | – | – | 0.0006872
150 K, Crystal | – | – | 0.0006912
175 K, Crystal | – | – | 0.000693
200 K, Crystal | – | – | 0.0006968
225 K, Crystal | – | – | 0.0006995
250 K, Crystal | – | – | 0.0007035
273 K, Crystal | – | – | 0.0007063
298.2 K, Crystal | – | – | 0.0007115
315 K, Crystal | – | – | 0.0007135
320 K, Crystal | – | – | 0.0007145
325 K, Crystal | – | – | 0.0007147
330 K, Crystal | – | – | 0.0007156
332 K, Crystal | – | – | 0.0007166
335 K, Crystal | – | – | 0.0007171
337 K, Crystal | – | – | 0.0007171
340 K, Crystal | – | – | 0.0007177
342 K, Crystal | – | – | 0.0007184
347 K, Crystal | – | – | 0.0007192
Crystal, DTA | – | 75.0 | –
Glass, DSC | -23.7 | – | –

Conditions | Molar enthalpy of transition or fusion [kcal/mol]
[3] | 8.45
